According to article PMC9219090 (ACS Omega, 2022):

Columns and labels:
MDA-MB 231 [1] = test: MTT antiproliferative evaluation on MDA-MB 231 cells; assay type: cell-based; settings: Homo sapiens, MDA-MB-231, 72 h, read-out: IC50 MDA-MB 231
Caco-2 [2] = test: Flow cytometric annexin V/PI analysis of apoptosis in Caco-2; assay type: cell-based, human; settings: Caco-2, at 3 nM, 72 h, mean ± SEM
MDA-MB 231 [3] = test: Flow cytometric annexin V/PI analysis of apoptosis in MDA-MB 231; assay type: cell-based, human; settings: MDA-MB 231, at 3 nM, 72 h, mean ± SEM
MMP-2 = molecular target: T1, MMP-2 (Homo sapiens, UniProt P08253); test: MMP-2 Inhibitor Screening Assay Kit; assay type: biochemical; settings: read-out: IC50 MMP-2
T1 sequence (P08253 110-660): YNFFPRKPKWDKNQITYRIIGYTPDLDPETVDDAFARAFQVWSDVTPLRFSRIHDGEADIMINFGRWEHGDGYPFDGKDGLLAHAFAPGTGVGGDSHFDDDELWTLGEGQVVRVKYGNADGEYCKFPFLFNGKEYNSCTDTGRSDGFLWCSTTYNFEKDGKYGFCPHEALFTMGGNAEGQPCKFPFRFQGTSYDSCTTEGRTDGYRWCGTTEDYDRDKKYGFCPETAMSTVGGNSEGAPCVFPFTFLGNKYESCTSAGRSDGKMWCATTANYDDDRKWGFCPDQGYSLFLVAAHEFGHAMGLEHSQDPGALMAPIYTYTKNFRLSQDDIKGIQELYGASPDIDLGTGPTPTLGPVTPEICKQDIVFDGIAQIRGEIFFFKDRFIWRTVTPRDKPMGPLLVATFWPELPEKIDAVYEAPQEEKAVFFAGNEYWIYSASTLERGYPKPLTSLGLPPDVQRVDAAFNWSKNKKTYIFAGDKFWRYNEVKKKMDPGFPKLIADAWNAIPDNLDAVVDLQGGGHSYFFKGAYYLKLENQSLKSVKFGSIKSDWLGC

MMP-9 = MMP-9 (Homo sapiens, UniProt P14780); test: MMP-9 Colorimetric Assay Kit for Drug Discovery; assay type: biochemical; settings: read-out: IC50 MMP-9
Sequence of MMP-9 (P14780 94-707): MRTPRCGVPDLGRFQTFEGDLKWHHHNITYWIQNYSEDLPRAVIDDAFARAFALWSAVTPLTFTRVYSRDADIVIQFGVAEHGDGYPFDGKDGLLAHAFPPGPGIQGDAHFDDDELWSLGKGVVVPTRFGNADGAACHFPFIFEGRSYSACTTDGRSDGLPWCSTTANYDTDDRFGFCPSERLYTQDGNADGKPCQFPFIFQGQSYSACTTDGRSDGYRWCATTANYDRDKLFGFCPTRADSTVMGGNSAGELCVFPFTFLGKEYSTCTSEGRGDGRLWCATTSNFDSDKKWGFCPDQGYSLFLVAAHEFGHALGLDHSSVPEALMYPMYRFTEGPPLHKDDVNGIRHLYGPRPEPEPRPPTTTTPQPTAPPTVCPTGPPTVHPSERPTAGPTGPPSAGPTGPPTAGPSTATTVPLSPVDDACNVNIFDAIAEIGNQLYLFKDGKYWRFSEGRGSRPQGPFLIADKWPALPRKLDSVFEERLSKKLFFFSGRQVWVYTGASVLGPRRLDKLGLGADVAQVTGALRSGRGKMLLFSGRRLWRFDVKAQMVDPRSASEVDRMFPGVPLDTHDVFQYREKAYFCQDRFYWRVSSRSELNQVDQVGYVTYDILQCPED

MMP-13 = MMP-13 (Homo sapiens, UniProt P45452); test: MMP-13 Inhibitor Screening Assay Kit; settings: read-out: IC50 MMP-13
MMP-7 = molecular target: T2, MMP-7 (Homo sapiens, UniProt P09237); test: MMP-7 Inhibitor Screening Assay Kit; settings: read-out: IC50 MMP-7
T2 sequence (P09237 95-267): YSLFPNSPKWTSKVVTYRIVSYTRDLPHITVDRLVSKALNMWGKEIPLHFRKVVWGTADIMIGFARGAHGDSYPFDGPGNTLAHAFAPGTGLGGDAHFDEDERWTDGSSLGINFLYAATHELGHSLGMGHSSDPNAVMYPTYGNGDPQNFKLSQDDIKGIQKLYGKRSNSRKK

MMP-10 = MMP-10 (Homo sapiens, UniProt P09238); test: MMP-10 Assay Kit; settings: read-out: IC50 MMP-10
Sequence of MMP-10 (P09238 99-476): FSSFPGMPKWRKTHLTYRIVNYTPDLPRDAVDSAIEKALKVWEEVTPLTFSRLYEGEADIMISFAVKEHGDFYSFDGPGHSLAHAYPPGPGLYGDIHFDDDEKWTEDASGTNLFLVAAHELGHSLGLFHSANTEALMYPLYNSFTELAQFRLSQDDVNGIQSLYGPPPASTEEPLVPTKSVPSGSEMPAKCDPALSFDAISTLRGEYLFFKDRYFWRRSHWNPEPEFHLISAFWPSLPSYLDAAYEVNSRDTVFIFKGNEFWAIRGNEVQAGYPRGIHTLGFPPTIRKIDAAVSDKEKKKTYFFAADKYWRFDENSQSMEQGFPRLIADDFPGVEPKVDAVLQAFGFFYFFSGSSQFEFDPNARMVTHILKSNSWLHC

Caco-2 [4] = test: MTT antiproliferative evaluation on Caco-2 cells; assay type: cell-based; settings: Homo sapiens, Caco-2, 72 h, read-out: IC50 Caco-2
tumor growth = settings: mouse models; cited from earlier work

With `COc1cccc2c1C(=O)c1c(O)c3c(c(O)c1C2=O)C[C@@](O)(C(=O)CO)C[C@@H]3O[C@H]1C[C@H](N)[C@H](O)[C@H](C)O1` [DOX, doxorubicin] the IC50 (MDA-MB 231 [1]) was 10.7 ± 0.3 nM, the “total % of the apoptotic cell population, Caco-2” value (Caco-2 [2]) was 31.7 ± 2.7% and the “total % of the apoptotic cell population, Caco-2” value (Caco-2 [2]; listed as doxorubicin) was less than 32%. The “total % of the apoptotic cell population, MDA-MBA 231” value (MDA-MB 231 [3]) was 19.9 ± 1.6% and the “total % of the apoptotic cell population, MDA-MBA 231” value (MDA-MB 231 [3]; listed as doxorubicin) was less than 32%.

In the case of `COc1ccc(S(=O)(=O)N(CC(=O)NO)CC(C)C)cc1` [NNGH, N-isobutyl-N-(4-methoxyphenylsulfonyl)glycyl hydroxamic acid], the IC50 (MMP-2) is reported as 77 nM, the IC50 (MMP-9) is reported as 73 nM and the IC50 (MMP-13) is reported as 360 nM. It also gave an IC50 (MMP-7) of 240 nM and an IC50 (MMP-10) of 101 nM.

Work on `O=C(NNc1nc(O)nc(O)n1)c1ccc(Nc2nc(Nc3ccc(C(=O)NNc4nc(O)nc(O)n4)cc3)nc(Nc3ccc(C(=O)NNc4nc(O)nc(O)n4)cc3)n2)cc1` [compound 12, 4,4′,4′′-((1,3,5-Triazine-2,4,6-triyl)tris(azanediyl))tris(N′-(4,6-dihydroxy-1,3,5-triazin-2-yl)benzohydrazide)] yielded an IC50 (Caco-2 [4]) of 52.8 ± 3.8 nM and an IC50 (MDA-MB 231 [1]) of 70.9 ± 3.7 nM.

With `O=C(NO)c1ccc(Nc2nc(Nc3ccc(C(=O)NO)cc3)nc(Nc3ccc(C(=O)NO)cc3)n2)cc1` [compound 13, 4,4′,4′′-((1,3,5-Triazine-2,4,6-triyl)tris(azanediyl))tris(N-hydroxybenzamide)] the IC50 (Caco-2 [4]) was 38.4 ± 1.6 nM and the IC50 (MDA-MB 231 [1]) was 94.4 ± 10.6 nM.

B1: andecaliximab (antibody, chains of the INN, looked up, V domains shown)
VH: QVQLQESGPGLVKPSETLSLTCTVSGFSLLSYGVHWVRQPPGKGLEWLGVIWTGGTTNYNSALMSRFTISKDDSKNTVYLKMNSLKTEDTAIYYCARYYYGMDYWGQGTLVTVSS
VL: DIQMTQSPSSLSASVGDRVTITCKASQDVRNTVAWYQQKPGKAPKLLIYSSSYRNTGVPDRFSGSGSGTDFTLTISSLQAEDVAVYYCQQHYITPYTFGGGTKVEIK
For B1, the “tumor growth and metastases incidence” value (tumor growth) is listed as “reduced the tumor growth and metastases incidence”.
